According to paper PMC4433267, “Corosolic Acid Inhibits Hepatocellular Carcinoma Cell Migration by Targeting the VEGFR2/Src/FAK Pathway” (PLoS ONE, 2015):

Target: VEGFR2 (KDR) (Homo sapiens, UniProt P35968)
Assay: ADP-Glo kinase assay with purified KDR (Promega V2681), […] ATP
Assay type: biochemical

Chain of VEGFR2 (KDR) (P35968 20-1356): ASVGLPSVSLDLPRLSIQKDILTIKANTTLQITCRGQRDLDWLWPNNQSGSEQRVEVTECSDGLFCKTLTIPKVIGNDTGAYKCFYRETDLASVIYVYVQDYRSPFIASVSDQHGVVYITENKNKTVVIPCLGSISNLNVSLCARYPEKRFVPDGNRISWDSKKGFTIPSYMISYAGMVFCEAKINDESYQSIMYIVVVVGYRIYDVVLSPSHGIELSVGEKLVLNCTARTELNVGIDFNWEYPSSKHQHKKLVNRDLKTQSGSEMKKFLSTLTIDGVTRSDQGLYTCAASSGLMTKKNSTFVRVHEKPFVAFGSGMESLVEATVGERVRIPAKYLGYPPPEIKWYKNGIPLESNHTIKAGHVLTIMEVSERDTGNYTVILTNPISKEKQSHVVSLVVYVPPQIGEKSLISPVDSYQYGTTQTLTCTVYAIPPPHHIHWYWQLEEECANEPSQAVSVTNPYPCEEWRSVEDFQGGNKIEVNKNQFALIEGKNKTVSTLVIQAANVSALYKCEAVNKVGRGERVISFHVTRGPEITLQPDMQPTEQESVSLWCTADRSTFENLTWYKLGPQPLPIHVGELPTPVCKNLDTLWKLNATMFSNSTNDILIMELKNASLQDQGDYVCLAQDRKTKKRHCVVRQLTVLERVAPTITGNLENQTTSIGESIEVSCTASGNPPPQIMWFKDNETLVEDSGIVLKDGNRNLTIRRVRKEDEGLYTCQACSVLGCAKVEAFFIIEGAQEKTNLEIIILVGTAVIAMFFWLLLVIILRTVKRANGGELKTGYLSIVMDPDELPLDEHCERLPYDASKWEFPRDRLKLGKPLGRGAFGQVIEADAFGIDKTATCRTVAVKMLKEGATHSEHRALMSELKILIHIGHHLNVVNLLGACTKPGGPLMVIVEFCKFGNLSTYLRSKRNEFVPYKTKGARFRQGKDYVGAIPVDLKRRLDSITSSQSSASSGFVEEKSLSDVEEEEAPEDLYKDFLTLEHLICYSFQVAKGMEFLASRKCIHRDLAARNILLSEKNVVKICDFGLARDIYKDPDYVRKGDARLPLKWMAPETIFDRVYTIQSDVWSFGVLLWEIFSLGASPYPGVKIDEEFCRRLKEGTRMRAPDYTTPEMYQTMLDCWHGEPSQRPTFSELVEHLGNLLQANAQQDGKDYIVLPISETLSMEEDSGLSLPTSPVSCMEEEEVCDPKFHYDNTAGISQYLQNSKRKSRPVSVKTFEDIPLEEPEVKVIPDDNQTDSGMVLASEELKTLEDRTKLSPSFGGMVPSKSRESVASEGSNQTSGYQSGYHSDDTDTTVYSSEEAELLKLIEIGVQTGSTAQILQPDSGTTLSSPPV

For `C[C@H]1[C@H](C)CC[C@]2(C(=O)O)CC[C@]3(C)C(=CC[C@@H]4[C@@]5(C)C[C@@H](O)[C@H](O)C(C)(C)[C@@H]5CC[C@]43C)[C@H]12` [CA, corosolic acid], the IC50 was 950 nM.
